Source: ChEMBL document CHEMBL5360636, “Hyperelatolides A-D, Antineuroinflammatory Constituents with Unusual Carbon Skeletons from Hypericum elatoides” (J Nat Prod, 2023)

Tests used:
BV-2 [1] = test: Antineuroinflammatory activity in LPS-induced mouse BV-2 cells assessed as inhibition of NO production by griess assay; assay type: functional, cell-based
BV-2 [2] = test: Antineuroinflammatory activity in LPS-induced mouse BV-2 cells assessed as reduction in nuclear NF-kappaB protein expression by Western blot analysis; assay type: functional, cell-based; details: dose 2.5-10 µM
BV-2 [3] = test: Cytotoxicity against mouse BV-2 cells at 20 uM by MTT assay; assay type: toxicity, cell-based; details: bv-2, 20 µM
BV-2 [4] = test: Antineuroinflammatory activity in LPS-induced mouse BV-2 cells assessed as downregulation of iNOS protein expression by Western blot analysis; assay type: functional, cell-based; details: dose 2.5-10 µM
BV-2 [5] = test: Antineuroinflammatory activity in LPS-induced mouse BV-2 cells assessed as reduction in cytoplasmic NF-kappaB protein expression by Western blot analysis; assay type: functional, cell-based; details: dose 2.5-10 µM
BV-2 [6] = test: Antineuroinflammatory activity in LPS-induced mouse BV-2 cells assessed as downregulation of COX-2 protein expression by Western blot analysis; assay type: functional, cell-based; details: dose 2.5-10 µM

Compound | IC50 (BV-2 [1]) [µM] | Activity (BV-2 [2]) | Activity (BV-2 [3]) | Activity (BV-2 [4]) | Activity (BV-2 [5]) | Activity (BV-2 [6])
CC(=O)C[C@@H]1CCC(C)(C)C/C1=C/[C@H]1CC(=O)OC(C)(C)[C@H]1OC(=O)c1ccccc1 | 5.74 | Dose-Dependent Effect | Non-Toxic | Dose-Dependent Effect | Dose-Dependent Effect | Dose-Dependent Effect
CC(=O)C[C@@H]1CCC(C)(C)C/C1=C/C1=CC(C)(C)OC1=O | > 20 |  | Non-Toxic |  |  | 
CC(=O)C[C@@H]1CCC(C)(C)C/C1=C/[C@H]1CC(=O)OC(C)(C)[C@@H]1OC(=O)c1ccccc1 | 7.35 |  | Non-Toxic |  |  | 
C[C@@H]1C[C@H]2[C@@H]3CCC4=CC(=O)C=C[C@]4(C)[C@@]3(F)[C@@H](O)C[C@]2(C)[C@@]1(O)C(=O)CO [DEXAMETHASONE] | 2.83 |  |  |  |  | 
O=c1c(O)c(-c2ccc(O)c(O)c2)oc2cc(O)cc(O)c12 [QUERCETIN] | 7.41 |  |  |  |  | 
COc1ccc2c(c1)c(CC(=O)O)c(C)n2C(=O)c1ccc(Cl)cc1 [INDOMETHACIN] | 19.5 |  |  |  |  | 
CC(=O)C[C@@H]1CCC(C)(C)C/C1=C/[C@H]1CC(=O)O[C@H]1C(C)(C)OC(=O)c1ccccc1 | 14.9 |  | Non-Toxic |  |  | 
